# Literature values in patent US20130316464A1, “ANALYTE […] AND METHOD” (priority 2010, published 2013).
# System: erythrocytes
# Conditions: whole blood
smiles,measurement,value
"CC(C)c1cccc(C(C)C)c1O [propofol, 2,6-diisopropylphenol]",proportion of the propofol partitioned into / bound to blood cells (erythrocytes),30-40%
